Experimental data: patent US4835163A, “N-alkoxyalkyl derivatives of quinolone carboxamides” (Sanofi, priority 1986, dated 1989)

Columns and labels:
[1] = anticonvulsive activity, test with pentetrazol; type: in vivo, mice (male CD1); settings: Mus musculus, 0.5 h; oral route, 30 minutes before pentetrazol 135 mg/kg s.c.; dose which avoids attacks in half of the animals; read-out: DE50 (the source's name)
Procedure: This activity has been studied by the test with pentetrazol, according to the method of EVERETT and RICHARDS (J. Pharm. Exp. Ther. 1944, 81, 402-407).
Thus the DE50 is determined, which is the dose which avoids the appearance of attacks in half of the animals. The DE 50 has been calculated by the method of D. K. Finney (Probit analysis; University Press; Cambridge; 1971).

[2] = antagonist activity vis a vis the hypnotic effects of benzodiazepines; settings: 25 mg/kg i.p., 15 minutes before diazepam 6 mg/kg i.p.; control 97 ± 12; * P < 0.05 vs control
[3] = acute oral toxicity (LD 50); settings: mouse, in vivo, mice
Description: The components of the invention benefit from a good tolerance and a weak toxicity. […] 1, in mice.

[4] = locomotive activity, photoelectric cell actimeter; type: in vivo, mice (male CD1); settings: 32 mg/kg O.R.; untreated mice 553 ± 200; P <0.05 (Student test)
Procedure: The mice (male CD1 20-25 g) are placed in groups of three in the cages of a photoelectric cell actimeter. After 30 minutes of getting used to the enclosure, the animas are treated by oral route with the product under test in suspension in carboxymethylcellulose at 1%. A control set of untreated mice receive only the vehicle. Each set contains 12 groups of 3 mice. The movement activity responses are recorded for 80 minutes.

Row | Compound | ED50 [1] | Length of sleep [2] | LD50 [3] | Movement Activity for 80 min [4]
1 | COCn1cc(C(=O)NC2CCCC2)c(=O)c2ccccc21 [derivative no. 8, 1-methoxymethyl-4-oxo-1,4-dihydro-quinoline 3-(N-cyclopentyl)carboxamide] | 108 mg/kg |  |  | 
2 | CCCNC(=O)c1cn(COCC)c2ccccc2c1=O [derivative no. 13, 1-ethoxymethyl-4-oxo-1,4-dihydro-quinoline 3-(N-propyl)carboxamide] | 75 mg/kg |  |  | 
3 | CCCNC(=O)c1cn(COC)c2ccc(F)cc2c1=O [derivative no. 9, 1-methoxymethyl-4-oxo-6-fluoro-1,4-dihydro-quinoline 3-(N-propyl)carboxamide] | 62 mg/kg | 22 ± 8 min |  | 
4 | CCNC(=O)c1cn(COC)c2ccccc2c1=O [derivative no. 3, 1-methoxymethyl-4-oxo-1,4-dihydro-quinoline 3-(N-ethyl)carboxamide] |  | 9 ± 4 min |  | 
5 | COCn1cc(C(=O)NC2CC2)c(=O)c2ccccc21 [derivative no. 7, 1-methoxymethyl-4-oxo-1,4-dihydro-quinoline 3-(N-cyclopropyl)carboxamide] | 67 mg/kg | 32 ± 11 min |  | 
6 | COCn1cc(C(=O)NCC(C)C)c(=O)c2ccccc21 [derivative no. 5, 1-methoxymethyl-4-oxo-1,4-dihydro-quinoline 3-(N-isobutyl)carboxamide] | 46 mg/kg | 62 ± 10 min |  | 
7 | CCCNC(=O)c1cn(COC)c2ccc(OC)cc2c1=O [derivative no. 12, 1-methoxymethyl-4-oxo-6-methoxy-1,4-dihydro-quinoline 3-(N-propyl)carboxamide] | 65 mg/kg |  |  | 
8 | CCCNC(=O)c1cn(COC)c2c(F)cccc2c1=O [derivative no. 10, 1-methoxymethyl-4-oxo-8-fluoro-1,4-dihydro-quinoline 3-(N-propyl)carboxamide] | 53 mg/kg |  |  | 
9 | CCC1(c2ccccc2)C(=O)NC(=O)NC1=O [phenobarbital, reference compound] | 10 mg/kg |  |  | 
10 | CCCNC(=O)c1cn(CCOC)c2ccccc2c1=O [derivative no. 15, 1-methoxyethyl-4-oxo-1,4-dihydro-quinoline 3-(N-propyl)carboxamide] | 50 mg/kg |  |  | 
11 | CCCNC(=O)c1cn(CCOCC)c2ccccc2c1=O [derivative no. 14, 1-ethoxyethyl-4-oxo-1,4-dihydro-quinoline 3-(N-propyl)carboxamide] | 79 mg/kg |  |  | 
12 | CCCC(CCC)C(=O)[O-].[Na+] [sodium valproate, reference compound] | 200 mg/kg |  |  | 
13 | CCCNC(=O)c1cn(COC)c2c(Cl)cccc2c1=O [derivative no. 11, 1-methoxymethyl-4-oxo-8-chloro-1,4-dihydro-quinoline 3-(N-propyl)carboxamide] | 21 mg/kg |  |  | 
14 | CCCNC(=O)c1cn(COC)c2ccccc2c1=O [derivative no. 1, 1-methoxymethyl-4-oxo-1,4-dihydro-quinoline 3-(N-propyl)carboxamide] | 55 mg/kg | 39 ± 20 min | 1100 mg/kg | 1842 ± 470
